Among the data in US8426408B2, “Pyrimidine inhibitors of kinases” (AbbVie Inc., priority 2009, dated 2013) are Ki values, retold here.

Where only a bound is given, the exact number is not on record here.

For test [1], the target named is T1, Aurora B (Homo sapiens, UniProt Q96GD4).
T1 construct: Active Aurora B enzyme (recombinant residues 1-344)
The experiment in a line: Aurora B enzyme inhibition (time-resolved fluorescence, histone H3 peptide). Conditions: 1 mM ATP. Type of test: biochemical. The method in brief:
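Recombinant Aurora B (residues 1-344) with GST-INCENP phosphorylated biotinylated histone H3 (1-21) peptide at 1 mM ATP in HEPES pH 7.4 with MgCl2, orthovanadate and Triton X-100 for 1 h. After EDTA stop, the phosphopeptide was detected by TR-FRET (Eu-cryptate anti-phospho-H3 / SA-APC, 665/615 nm ratio). IC50 from an exponential fit.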

In test [2] the target is T2, Aurora A (Homo sapiens, UniProt O14965).
T2 sequence (O14965 1-403): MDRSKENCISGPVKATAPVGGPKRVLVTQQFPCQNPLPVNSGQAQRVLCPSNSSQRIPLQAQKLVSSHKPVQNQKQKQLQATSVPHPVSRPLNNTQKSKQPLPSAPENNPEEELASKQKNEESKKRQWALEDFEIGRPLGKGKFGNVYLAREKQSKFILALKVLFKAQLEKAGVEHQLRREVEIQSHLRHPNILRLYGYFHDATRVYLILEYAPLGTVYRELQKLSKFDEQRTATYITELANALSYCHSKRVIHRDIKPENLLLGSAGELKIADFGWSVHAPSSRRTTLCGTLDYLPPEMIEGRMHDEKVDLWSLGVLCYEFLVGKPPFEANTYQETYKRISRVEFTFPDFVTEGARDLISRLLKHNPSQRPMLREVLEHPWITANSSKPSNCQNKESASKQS
The experiment in a line: Aurora A enzyme inhibition (time-resolved fluorescence, STK substrate-2). Particulars: 1 mM ATP. Type of test: biochemical. The gist of the method:
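Active enzyme incubated 1 h with biotinylated STK substrate-2, 1 mM ATP and inhibitor in Hepes pH 7.4 with MgCl2, orthovanadate and Triton X-100. EDTA stop; phosphopeptide detected by Eu-cryptate anti-phospho-STK/SA-XL665 TR-FRET (665/615 nm ratio); IC50 by exponential fit.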

T1 sequence (Q96GD4 whole entry, the tested form may be a part): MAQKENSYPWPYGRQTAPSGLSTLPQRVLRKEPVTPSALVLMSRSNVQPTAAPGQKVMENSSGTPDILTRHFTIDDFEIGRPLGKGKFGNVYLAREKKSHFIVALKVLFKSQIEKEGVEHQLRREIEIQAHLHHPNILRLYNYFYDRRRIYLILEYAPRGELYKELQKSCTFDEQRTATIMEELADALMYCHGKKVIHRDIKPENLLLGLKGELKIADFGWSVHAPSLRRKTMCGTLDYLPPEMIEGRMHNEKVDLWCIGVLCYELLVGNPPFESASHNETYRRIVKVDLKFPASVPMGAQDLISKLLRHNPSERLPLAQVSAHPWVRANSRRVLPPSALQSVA
T1 sequence (Q9NQS7 826-918 partner limits assumed): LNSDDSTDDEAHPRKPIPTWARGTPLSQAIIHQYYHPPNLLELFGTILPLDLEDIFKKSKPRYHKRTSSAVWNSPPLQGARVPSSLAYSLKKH

Take `Cc1c(Nc2ncc(Br)c(N[C@H]3[C@@H](C(N)=O)[C@@H]4C=C[C@H]3C4)n2)cnn1C` [Example 170, (1S,2S,3R,4R)-3-({5-bromo-2-[(1,5-dimethyl-1H-pyrazol-4-yl)amino]pyrimidin-4-yl}amino)bicyclo[2.2.1]hept-5-ene-2-carboxamide]: the Ki in test [1] and in test [2] was < 0.1 µM each time.
On to `COCCOCCn1cc(Nc2ncc(Br)c(N[C@H]3[C@@H](C(N)=O)[C@@H]4C=C[C@H]3C4)n2)cn1` [Example 110, (1S,2S,3R,4R)-3-{[5-bromo-2-({1-[2-(2-methoxyethoxy)ethyl]-1H-pyrazol-4-yl}amino)pyrimidin-4-yl]amino}bicyclo[2.2.1]hept-5-ene-2-carboxamide], for which the inhibition constant Ki in test [1] and in test [2] was < 0.1 µM throughout.
Regarding `NC(=O)[C@@H]1[C@H](Nc2nc(Nc3cnn(-c4ccccc4)c3)ncc2Br)[C@H]2C=C[C@@H]1C2` [Example 173, (1S,2S,3R,4R)-3-({5-bromo-2-[(1-phenyl-1H-pyrazol-4-yl)amino]pyrimidin-4-yl}amino)bicyclo[2.2.1]hept-5-ene-2-carboxamide], the Ki in test [1] and in test [2] was < 0.1 µM each time.
Regarding `CC(=O)N1CCC(n2cc(Nc3ncc(Cl)c(N[C@H]4[C@@H](C(N)=O)[C@@H]5C=C[C@H]4C5)n3)cn2)CC1` [Example 92, (1S,2S,3R,4R)-3-[(2-{[1-(1-acetylpiperidin-4-yl)-1H-pyrazol-4-yl]amino}-5-chloropyrimidin-4-yl)amino]bicyclo[2.2.1]hept-5-ene-2-carboxamide], the Ki in test [1] and in test [2] was < 0.1 µM in each case.
As to `CCn1cc(Nc2ncc([N+](=O)[O-])c(N[C@H]3[C@@H](C(N)=O)[C@@H]4C=C[C@H]3C4)n2)cn1` [Example 140, (1S,2S,3R,4R)-3-({2-[(1-ethyl-1H-pyrazol-4-yl)amino]-5-nitropyrimidin-4-yl}amino)bicyclo[2.2.1]hept-5-ene-2-carboxamide], the Ki in test [1] and in test [2] was < 0.1 µM throughout.
As for `CCn1cc(Nc2ncc(C(F)(F)F)c(N[C@H]3[C@@H](C(N)=O)C[C@H]4C[C@@H]3C4(C)C)n2)cn1` [Example 168, (1R,2R,3S,5R)-2-({2-[(1-ethyl-1H-pyrazol-4-yl)amino]-5-(trifluoromethyl)pyrimidin-4-yl}amino)-6,6-dimethylbicyclo[3.1.1]heptane-3-carboxamide], the Ki in test [1] and in test [2] was < 0.1 µM in each case.
Regarding `Cn1cc(Nc2ncc(Cl)c(N[C@@H]3[C@H](C(N)=O)[C@H]4CC[C@@H]3O4)n2)cn1.Cn1cc(Nc2ncc(Cl)c(N[C@H]3[C@@H](C(N)=O)[C@@H]4CC[C@H]3O4)n2)cn1` (mixture of isomers) [Example 141, (1S,2R,3S,4R)-3-({5-chloro-2-[(1-methyl-1H-pyrazol-4-yl)amino]pyrimidin-4-yl}amino)-7-oxabicyclo[2.2.1]heptane-2-carboxamide and (1R,2S,3R,4S)-3-({5-chloro-2-[(1-methyl-1H-pyrazol-4-yl)amino]pyrimidin-4-yl}amino)-7-oxabicyclo[2.2.1]heptane-2-carboxamide], the inhibitory constant (Ki) in test [1] and in test [2] was < 0.1 µM in each case.
Regarding `Cn1cc(Nc2ncc(Cl)c(N[C@@H]3[C@@H]4CC[C@@H](C4)[C@@H]3C(N)=O)n2)cn1.Cn1cc(Nc2ncc(Cl)c(N[C@H]3[C@H]4CC[C@H](C4)[C@H]3C(N)=O)n2)cn1` (mixture of isomers) [Example 113, (1R,2R,3S,4S)-3-({5-chloro-2-[(1-methyl-1H-pyrazol-4-yl)amino]pyrimidin-4-yl}amino)bicyclo[2.2.1]heptane-2-carboxamide and (1S,2S,3R,4R)-3-({5-chloro-2-[(1-methyl-1H-pyrazol-4-yl)amino]pyrimidin-4-yl}amino)bicyclo[2.2.1]heptane-2-carboxamide], the inhibitory constant (Ki) in test [1] and in test [2] was < 0.1 µM each time.
As for `NC(=O)[C@@H]1[C@H](Nc2nc(Nc3cnn(Cc4ccccc4Cl)c3)ncc2Cl)[C@H]2C=C[C@@H]1C2` [Example 161, (1S,2S,3R,4R)-3-[(5-chloro-2-{[1-(2-chlorobenzyl)-1H-pyrazol-4-yl]amino}pyrimidin-4-yl)amino]bicyclo[2.2.1]hept-5-ene-2-carboxamide], the Ki in test [1] and in test [2] was < 0.1 µM in each case.
